Earlier results as cited in patent US20130089611A1, “RASAGILINE CITRAMIDE” (TEVA PHARMACEUTICAL INDUSTRIES, LTD., priority 2011, published 2013).

Conditions: in vivo

Question: With `C#CCN[C@@H]1CCc2ccccc21` [rasagiline, R(+)-N-propargyl-1-aminoindan] as the molecule, how does the absolute bioavailability read?
Answer: about 36%
